The subject of one data set is panelists. Description: Cooling intensity: panelists taste aqueous solutions versus menthol at 2 ppm. The format is in vivo. As to conditions: aqueous solution with cooling intensity similar or slightly higher than a solution of menthol at 2 ppm.
Data set [1] deals with panelist. The experiment in a line: Application in chewing gum, gum stick chewed by a panelist. As to conditions: chewing gum with 0.10 g compound in about 100 g gum, with peppermint oil; chewed for 15 minutes. The format is in vivo. The protocol: All the ingredients are mixed in the pre-warmed gum base. The mixture is spread in thick films, cooled down and cut in sticks. A gum stick is chewed by a panelist for 15 minutes. […] No off-note was observed.

Data set [2] deals with panelist. The experiment in a line: Application in beverage (clear lemon/lime soda), tasted by a panelist. The format is in vivo. As to conditions: 1.2 mL of a 0.5% ethanolic solution in a 355 mL can of clear lemon/lime soda. The protocol: 1.2 mL of a 0.5% ethanolic solution of 1-isopropyl-4-methyl-bicyclo[2.2.2]oct-5-ene-2,3-dicarbinol is added in a 355 mL (12 fl oz.) can of clear lemon/lime soda.

For data set [3], the system named is panelist. The settings on record: general statement, not tested here; cited from earlier work.

The molecule “1-Isopropyl-4-methyl-bicyclo[2.2.2]oct-5-ene-2-carboxylic acid and 1-isopropyl-4-methyl-bicyclo[2.2.2]oct-5-ene-3-carboxylic acid [Example 2]” showed a Concentration in the data set on panelists of 2 ppm.

As to `CC(C)C12C=CC(C)(CC1)C(CO)C2CO` (stereo not drawn) [Example 1, 1-Isopropyl-4-methyl-bicyclo[2.2.2]oct-5-ene-2,3-dicarbinol], in the data set with panelist [1], the cooling sensation entry is given as “immediate cooling sensation is felt in all areas of the mouth”. The molecule also had a Concentration with panelists of 2 ppm. In addition, in the data set on panelist [2], the cooling sensation entry is given as “immediate cooling sensation in the mouth” and the throat burning result was “none of the throat burning”.

In turn, `CCNC(=O)C1CC2(C)C=CC1(C(C)C)CC2` (stereo not drawn) [Example 4, N-ethyl 1-Isopropyl-4-methyl-bicyclo[2.2.2]oct-5-ene-2-carboxamide] registered a Concentration with panelists of 3 ppm.

In the data set with panelists, `CC1=CC2C(O)CC1CC2C(C)C` (stereo not drawn) [Example 6, 7-isopropyl-5-methyl-bicyclo[2.2.2]oct-5-en-2-ol] displayed a Concentration of 5 ppm. In the case of `CCNC(=O)C1CC(C)CCC1C(C)C` (stereo not drawn) [WS-3, N-ethyl p-menthanecarboxamide, reference compound], the Concentration in the data set on panelists stood at 1.5 ppm. The “throat burning (stated as known characteristic)” value with panelist [3] was “throat burning that is characteristic”.

Values taken from patent US20090098066A1, “Substituted bicyclo [2.2.2] oct/5-ene compounds and their use as cooling agents” (priority 2005, published 2009).
